Assay results taken from ChEMBL document CHEMBL1201862, “PubChem BioAssay data set” (2004).
Calls of active or inactive are those of the source.

Key:
Type in all cases: functional
Protein RecA = target: T1, Protein RecA (Mycobacterium tuberculosis, UniProt P9WHJ3); test: Fluorescence Cell-Free Homogeneous Dose Retest to Identify Inhibitors of RecA-Intein Splicing Activity. [Related pubchem assays (depositor defined):AID2097, AID2223, AID489010, AID492950]
T1 sequence (P9WHJ3 whole entry): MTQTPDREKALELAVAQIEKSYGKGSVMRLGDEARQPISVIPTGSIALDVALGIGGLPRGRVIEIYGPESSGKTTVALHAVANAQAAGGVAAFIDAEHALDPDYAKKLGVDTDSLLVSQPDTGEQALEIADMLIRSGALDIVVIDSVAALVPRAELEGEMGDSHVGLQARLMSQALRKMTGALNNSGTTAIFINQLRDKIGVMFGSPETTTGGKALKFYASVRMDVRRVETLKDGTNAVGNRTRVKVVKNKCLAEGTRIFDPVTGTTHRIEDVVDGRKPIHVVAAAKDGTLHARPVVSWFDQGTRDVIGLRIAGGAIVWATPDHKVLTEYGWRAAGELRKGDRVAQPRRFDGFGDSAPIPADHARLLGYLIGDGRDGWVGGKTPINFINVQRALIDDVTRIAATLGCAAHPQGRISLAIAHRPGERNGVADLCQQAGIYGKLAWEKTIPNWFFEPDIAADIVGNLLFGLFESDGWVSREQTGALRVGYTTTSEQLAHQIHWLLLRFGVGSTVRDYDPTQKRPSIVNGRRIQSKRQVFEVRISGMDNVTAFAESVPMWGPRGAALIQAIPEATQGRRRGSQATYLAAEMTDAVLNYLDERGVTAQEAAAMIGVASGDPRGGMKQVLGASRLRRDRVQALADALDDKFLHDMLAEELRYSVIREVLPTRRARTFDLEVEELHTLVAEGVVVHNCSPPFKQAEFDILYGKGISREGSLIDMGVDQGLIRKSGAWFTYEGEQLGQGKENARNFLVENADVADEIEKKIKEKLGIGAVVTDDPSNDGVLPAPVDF

cells = test: cells
[1] = HepG2 cell cytotoxicity, dose response, cytotoxicity control for non-replicating M. tuberculosis project (AID 489018); details: Mycobacterium tuberculosis
[2] = target: T2, Replicative DNA helicase DnaB (Mycobacterium tuberculosis, UniProt P9WMR3); test: DnaB intein splicing inhibitors, dose response, biochemical, cell-free fluorescence (AID 449749)
T2 sequence (P9WMR3 whole entry): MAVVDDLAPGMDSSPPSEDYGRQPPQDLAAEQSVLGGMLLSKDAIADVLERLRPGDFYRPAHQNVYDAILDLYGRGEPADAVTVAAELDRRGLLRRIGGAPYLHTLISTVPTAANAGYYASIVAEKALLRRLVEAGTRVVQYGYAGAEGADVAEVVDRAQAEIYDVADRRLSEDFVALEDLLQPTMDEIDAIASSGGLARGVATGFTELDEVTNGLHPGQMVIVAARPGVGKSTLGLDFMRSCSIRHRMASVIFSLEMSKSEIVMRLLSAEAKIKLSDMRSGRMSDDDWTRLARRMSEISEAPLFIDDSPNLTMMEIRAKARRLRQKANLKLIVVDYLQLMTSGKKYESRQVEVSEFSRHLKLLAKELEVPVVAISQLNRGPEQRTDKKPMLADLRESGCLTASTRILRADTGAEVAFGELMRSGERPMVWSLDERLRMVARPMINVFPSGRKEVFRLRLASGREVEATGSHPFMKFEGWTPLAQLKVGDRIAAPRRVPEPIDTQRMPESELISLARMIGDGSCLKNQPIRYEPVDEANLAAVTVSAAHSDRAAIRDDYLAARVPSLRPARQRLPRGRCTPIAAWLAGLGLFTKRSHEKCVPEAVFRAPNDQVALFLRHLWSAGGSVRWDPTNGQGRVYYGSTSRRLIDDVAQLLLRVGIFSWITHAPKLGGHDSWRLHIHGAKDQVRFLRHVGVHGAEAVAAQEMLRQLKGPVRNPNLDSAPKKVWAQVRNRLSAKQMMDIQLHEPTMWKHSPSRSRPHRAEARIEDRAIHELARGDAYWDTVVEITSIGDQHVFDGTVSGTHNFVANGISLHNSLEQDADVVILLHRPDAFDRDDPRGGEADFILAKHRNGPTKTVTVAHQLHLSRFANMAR

O=C1C(Nc2ccccc2)=C/C(=N/S(=O)(=O)c2cccs2)c2ccccc21
active: EC50 (Protein RecA) 0.143 µM | IC50 (cells) 14.2 µM | CC50 [1] 13.9 µM | AC50 [2] 0.187 µM
